Laboratory results as given in patent US20130046283A1, “METHODS AND INTRAVASCULAR TREATMENT DEVICES FOR TREATMENT OF ATHEROSCLEROSIS” (Medtronic Vascular, Inc., priority 2011, published 2013).
Entries after “also recorded” stand apart in the source; their conditions may differ.

Tests used:
Assay type in all cases: cell-based
[1] = system: BTG2; assay: qRT-PCR BTG2 gene expression in SFA smooth muscle cells, drug then inflammatory cocktail; conditions: quiescent SFA smooth muscle cells, drug then FBS, TGF Beta and IL-1 beta cocktail; calibrated against unstimulated baseline; FIG. 14A
Experimental: (§1) FIG. 14 depicts differential effect of paclitaxel versus the Limus family of drugs on expression of cell cycle, proliferation and ECM target genes in SFA smooth muscle cells. Quiescent SFA smooth muscle cells were treated with of Paclitaxel, Zotarolimus or Sirolimus then stimulated with inflammatory cocktail consisting of FBS, TGF Beta and 11—1 beta. Relative gene expression levels were determined by qRT-PCR for each drug treated arm as calibrated against the unstimulated baseline control for (A) BTG2, (B) KLF4, (C) PEDF, (D) Endothelin-1, (E) Thrombospondin-1, and (F) Thrombospondin-3.
(§2) Since the limus drugs have been known to affect the signaling via their effect on cell cycle inhibitors (CDKN1A and CDKN1 B), we next studied their effects on the pertinent proliferative disease targets identified in this study. Specifically, we looked at BTG2, KLF4 and PEDF (FIGS. 14A, 14B, and 14C, respectively).

[2] = system: CDKN1A; assay: qRT-PCR CDKN1A gene expression in drug-treated SFA smooth muscle cells; conditions: SFA smooth muscle cells from normal donor tissue; qRT-PCR calibrated against unstimulated control; FIG. 13A
Experimental: (§3) FIG. 13 depicts effects of paclitaxel on cellular morphology, gene and protein expression. (A and B) SFA smooth muscle cells from normal donor tissue were treated with Paclitaxel, Everolimus or Sirolimus. Gene expression levels were determined by qRT-PCR for each drug arm calibrated against unstimulated control for (A) CDKN1A and (C) CTGF. (B) SMCs were exposed to Sirolimus or Paclitaxel, fixed and stained with Actin (red) and Ki67 (green). (D) SFA derived smooth muscle cells were treated with Paclitaxel, Everolimus or Sirolimus then stimulated with Colchicinne (CTGF a) or Angiotensin II (CTGF b). Protein levels were detected by western blot using antibodies against CTGF and beta actin. One representative blot of three replicates shown.
(§4) Obtaining samples from SFA arteries allowed us to generate SFA derived-smooth muscle cells and to examine the expression of genes of interest as ide12tified in the disease atherectomy samples. In particularly we investigated the transcriptional response to anti-proliferative drugs, e.g. paclitaxel and drugs from the limus family such as sirolimus, everolimus or zotarolimus. These drugs are currently employed in combination devices indicated for the treatment of coronary and peripheral disease, including drug eluting stents and drug eluting balloons. […]

[3] = system: KLF4; assay: qRT-PCR KLF4 gene expression in SFA smooth muscle cells, drug then inflammatory cocktail; conditions: quiescent SFA smooth muscle cells, drug then FBS, TGF Beta and IL-1 beta cocktail; calibrated against unstimulated baseline; FIG. 14B
Experimental: as §1, §2

[4] = system: CTGF; assay: Western blot of CTGF protein in drug-treated SFA derived smooth muscle cells; conditions: drug then Colchicinne or Angiotensin II stimulation, FIG. 13D
Experimental: as §3, §4

[5] = system: Thrombospondin-3; assay: qRT-PCR Thrombospondin-3 gene expression in SFA smooth muscle cells, drug then inflammatory cocktail; conditions: quiescent SFA smooth muscle cells, FIG. 14F
Experimental: as §1
(§5) In a similar manner, the expression of Thrombospondin-1 and Thrombospondin-3 is inhibited by paciltaxel but not by sirolimus and zotarolimus. Taken together the data with regards to the differential effects of commercially employed, anti-proliferative drugs, such as paciltaxel and drugs of the limus family, on the expression of SFA disease target genes can highlight/point to wards the most beneficial therapeutic mode of application and treatment.

[6] = system: SFA smooth muscle cells; assay: Actin and Ki67 staining of SMCs exposed to drug (cellular morphology); conditions: SMCs fixed and stained with Actin and Ki67; FIG. 13B
Experimental: as §3, §4

[7] = system: PEDF; assay: qRT-PCR PEDF gene expression in SFA smooth muscle cells, drug then inflammatory cocktail; conditions: quiescent SFA smooth muscle cells, drug then FBS, TGF Beta and IL-1 beta cocktail; calibrated against unstimulated baseline; FIG. 14C
Experimental: as §1, §2

[8] = system: CTGF; assay: qRT-PCR CTGF gene expression in drug-treated SFA smooth muscle cells; conditions: qRT-PCR calibrated against unstimulated control, FIG. 13C
Experimental: as §3, §4

[9] = system: Endothelin-1; assay: qRT-PCR Endothelin-1 gene expression in SFA smooth muscle cells, drug then inflammatory cocktail; conditions: quiescent SFA smooth muscle cells, FIG. 14D
Experimental: as §1, §5

[10] = system: Thrombospondin-1; assay: qRT-PCR Thrombospondin-1 gene expression in SFA smooth muscle cells, drug then inflammatory cocktail; conditions: quiescent SFA smooth muscle cells, FIG. 14E
Experimental: as §1, §5

## CC(=O)O[C@H]1C(=O)[C@@]2(C)[C@H]([C@H](OC(=O)c3ccccc3)[C@]3(O)C[C@H](OC(=O)[C@H](O)[C@@H](NC(=O)c4ccccc4)c4ccccc4)C(C)=C1C3(C)C)[C@]1(OC(C)=O)CO[C@@H]1C[C@@H]2O [Paclitaxel]
[1]
  expression of BTG2: up regulated
[2]
  CDKN1A expression: does not affect
[3]
  expression of KLF4: up regulated
[4]
  CTGF protein levels: reduced
[5]
  expression of Thrombospondin-3: substantially down regulated
[5]; listed as paciltaxel
  expression of Thrombospondin-3: inhibited
[6]
  effect on cellular cytoskeleton / morphology: disrupting cellular cytoskeleton
[7]
  expression of PEDF: up regulated
[8]
  expression of CTGF (gene): substantial down regulation; also recorded: substantially down regulated
[9]
  expression of Endothelin-1: substantially down regulated
[9]; listed as paciltaxel
  expression of Endothelin-1: slightly inhibited
[10]
  expression of Thrombospondin-1: substantially down regulated
[10]; listed as paciltaxel
  expression of Thrombospondin-1: inhibited

## CO[C@H]1C[C@@H]2CC[C@@H](C)[C@@](O)(O2)C(=O)C(=O)N2CCCC[C@H]2C(=O)O[C@H]([C@H](C)C[C@@H]2CC[C@@H](OCCO)[C@H](OC)C2)CC(=O)[C@H](C)/C=C(\C)[C@@H](O)[C@@H](OC)C(=O)[C@H](C)C[C@H](C)/C=C/C=C/C=C/1C [everolimus]
[2]
  CDKN1A expression: up regulating

## CO[C@H]1C[C@@H]2CC[C@@H](C)[C@@](O)(O2)C(=O)C(=O)N2CCCC[C@H]2C(=O)O[C@H]([C@H](C)C[C@@H]2CC[C@H](n3cnnn3)[C@H](OC)C2)CC(=O)[C@H](C)/C=C(\C)[C@@H](O)[C@@H](OC)C(=O)[C@H](C)C[C@H](C)/C=C/C=C/C=C/1C [zotarolimus]
[1]
  expression of BTG2: induced the expression
[3]
  expression of KLF4: induced the expression
[9]
  expression of Endothelin-1: substantially upregulated
